Data on 9 molecules can be found in US7923231B2, “Production of glucuronic acid using myo-inositol oxygenase from cryptococcus neoformans” (Cargill, Incorporated, priority 2004, dated 2011).

Data set [1] deals with myo-inositol oxygenase (MIO). The experiment in a line: Conversion rate additives in the myo-inositol conversion mixture. The format is biochemical, Cryptococcus neoformans. To be noted: additive in conversion mixture. The text has this:
Although the conversion rate increased, the final conversion percentages were similar to conversion mixtures without those same additives.

Data set [2] has as its system myo-inositol oxygenase (MIO). Nature of the data set: Small-scale biocatalytic conversion: buffer concentration and ionic strength. The format is biochemical, Cryptococcus neoformans. Particulars: for increase in initial reaction rate and final concentration of D-glucuronic acid produced: salts concentrations higher than 0.25 M. The procedure: A small-scale protocol was used to develop the biocatalytic production of glucuronic acid from myo-inositol. Cells containing myo-inositol oxygenase were grown as described before, harvested by centrifugation and washed in 50 mM MOPS buffer at pH 7.0. The cell paste was kept frozen until use. To prepare the enzyme for the reaction, the cells were resuspended in 2 volumes of the same buffer at pH 6.5 and broken using either a French press or a MICROFLUIDICS® homogenizer (MICROFLUIDIZER® cell disruptor M-110L, available from Microfluidics, MA). Breakage was accomplished by 2 to 3 passes at 20,000 psi, and was followed visually using a microscope. The cell extract was centrifuged for 20 minutes at 15,000 rpm to remove the cell debris. Total soluble protein was measured in the clear supernatant, as described in Example 1. The cell extract was diluted to a protein concentration of 75 mg/ml and the enzyme was incubated for 1 hr on ice in the presence of ascorbic acid and ferrous ammonium sulfate at concentrations of 5 and 2 mM, respectively.
The enzyme reaction was carried out in 0.7 L reactors with temperature, pH, agitation and dissolved oxygen control. A solution of 50 g/L myo-inositol in 50 mM MOPS at pH 6.5 (200 mL) was used in the standard protocol. Temperature was controlled at 15° C. Pure air, air enriched with oxygen or pure oxygen were used to supply enough oxygen for the reaction to proceed. The air was supplied either in the headspace of the reactor or was sparged into the liquid. The formation of glucuronic acid results in a decrease in the pH of the broth. To keep the pH at the desired value, pH 6.5, the acid was neutralized with 4 N NaOH. The enzyme solution was added to reach an initial concentration of 2 g soluble protein/L. The reaction proceeded very fast immediately after the enzyme addition and the rate decayed over time. Different experiments varied the number and/or amount of enzyme additions. The progress of the reaction was followed by HPLC analysis.
Effect of buffer concentration and ionic strength. The effect of the buffer concentration was tested with the described protocol of Example 6, and included testing without any buffer, using 5 mM MOPS, and using 50 mM MOPS. No difference in the performance of the reaction was observed, either in reaction rate or in extent of reaction, as long as good pH control was provided.
Additionally, further studies on increasing the ionic strength of the broth by adding salts, using either NaCl or sodium glucuronate at 0.25 M and 0.5 M, or mixes of both, indicated better enzyme performance at higher ionic strength.

For data set [3] the following is noted: cited from earlier work.
The nature of data set [4]: Freeze-thaw and frozen storage stability of MIO activity. To be noted: continuous storage at −80° C. for several months. The text has this: A lysed cell mixture may be added either purified or unpurified into a mixture for MIO activation. If desired, samples containing MIO may be stored prior to use. Samples containing MIO may be stored at low temperatures for short periods of time or may be frozen for longer periods of storage without significant MIO degradation. […] Additional freeze-thaw cycles, however, did reduce MIO activity.

Where two headings read alike, the source gives them in different places.

As for catalase, the improvement in conversion in data set [1] (after 6.5 hours) is 18%. Consider `O=C[C@H](O)[C@@H](O)[C@H](O)[C@H](O)C(=O)[O-].[Na+]` [sodium glucuronate, reference compound], for which the “inhibition of the reaction” value in data set [2] (high concentrations) is “Some inhibition”. In addition, the “increase in initial reaction rate and final concentration of D-glucuronic acid produced” value in data set [2] is ~50%. Regarding “Bovine serum albumin: protein tested as conversion rate additive”, in data set [1], the “effect on MIO specific activity and conversion rate” value was “minimal effect”. `N[C@@H](CS)C(=O)O` [Cysteine]: the reduction potential in data set [3] (pH 7) is −230 mV.

On to `[Cl-].[Na+]` [NaCl], for which, in data set [2], the “increase in initial reaction rate and final concentration of D-glucuronic acid produced” value is reported as ~50%.

In the case of `O=C1O[C@H]([C@@H](O)CO)C(O)=C1O` [L-ascorbic acid], the reduction potential entry in data set [3] (25° C.) was “+54 mV”; in data set [3] (30° C.), “+51.2 mV”. Regarding `O=S(=O)(O)CCCN1CCOCC1` [MOPS, 3-[N-morpholino]propanesulfonic acid], the “effect of buffer concentration on reaction rate and extent of reaction” value in data set [2] (no buffer, 5 mM and 50 mM MOPS, with good pH control) is “No difference”.

For the molecule Superoxide dismutase, in data set [1], the “effect on MIO specific activity and conversion rate” value was “slightly increase”.

B1: MIO: Fe(II) containing enzyme that converts myo-inositol to D-glucuronic acid using oxygen (protein, UniProt Q9UGB7 1-285, looked up)
Inositol oxygenase: MKVTVGPDPSLVYRPDVDPEVAKDKASFRNYTSGPLLDRVFTTYKLMHTHQTVDFVRSKHAQFGGFSYKKMTVMEAVDLLDGLVDESDPDVDFPNSFHAFQTAEGIRKAHPDKDWFHLVGLLHDLGKVLALFGEPQWAVVGDTFPVGCRPQASVVFCDSTFQDNPDLQDPRYSTELGMYQPHCGLDRVLMSWGHDEYMYQVMKFNKFSLPPEAFYMIRFHSFYPWHTGRDYQQLCSQQDLAMLPWVREFNKFDLYTKCPDLPDVDKLRPYYQGLIDKYCPGILSW
Regarding B1, the “MIO activity on long-term storage” value in data set [4] was “remained stable”.
